{"source": "patent US5593970A", "about": "“Heterocyclic anthracycline analogs” (priority 1994, dated 1997)", "key": {"tumor cell lines": {"system": "tumor cell lines", "test": "Tumor clonogenic assay, overall", "format": "cell-based", "text": "For the IN VITRO test, we chose a tumor clonogenic assay which measures the ability of tumoral cells to form colonies (multicellular growth units) as a result of cell division in semisolid agar support (2,3). A more elaborate version of this fundamental assay, the soft agar colony formation disk diffusion assay was used. This assay defines the relative activity of one particular drug versus a tumoral cell line type. The effect of the test drug against tumoral cells could be measured by its inhibitory capacity against colony formation after the delivery of the compound, in different concentrations on an filter disk(4).\nA modified technique of this assay was used in order to investigate the antiproliferative activity of candidate compounds. Tumoral cells from solid tumors and ascitic lines were plated separately in a two layer agar matrix. Cell lines to be tested were suspended in an upper layer of 0.4% Noble agar (Difco#00142-01) in RPMI-1066 (Gibco#3201875) at a yield varying between 10^4 to 2×10^5 cells per 60 mm Petri dish. Plating efficiency was determined for each line in order to achieve an optimal number of colonies per dish. Plates were examined before drug administration to confirm a uniform dispersion of single cells. The bottom layer consisted of 0.8% Noble agar, 0.8% Tryptic Soy Broth (difco#0037001)in CMRL-1066/Fischer's. The bottom layers were used within 2 and 9 days of preparation. Plated dishes (bottom layer of agar, upper layer of cells and administered drug were incubated in humidified atmosphere at 37° C., 5% CO2 for 10-20 days depending upon the time necessary to observe adequate colonies (defined as a cell aggregate of more than 50 cells) both control and drug inhibited. Drugs were administered on a paper filter disk (Whatman No. 1) of 6.5 mm diameter placed on the upper layer at 1/3 distance from the edge of the dish. The anti-clonogenic activity of the compounds was measured as the zone of inhibition from the disk edge to the most proximal colonies. This zone of inhibition was checked on an inverted microscope (40×) and was measured with a micrometer mounted in the eyepiece. The ocular micrometer was calibrated with a stage micrometer set for a particular combination of ocular and objective lenses.\n200 units of activity are equivalent to 6.5 mm distance from the disk edge to the first colonies (5). […] We made a modification of the initial technique by not plating a solid tumor and a leukemia simultaneously in the same Petri dish. Anti-clonogenic tests performed on leukemia cell line have helped in the discovery of the majority of current clinically used cytostatic drugs. Our tests on solid tumor lines (animal or human) may help define active compounds with solid tumor specificity. This specific activity would be indicated by a higher level of cloning inhibition in solid tumors versus leukemias (6)."}, "MCF7/ADR": {"system": "MCF7/ADR", "test": "Soft agar colony formation disk diffusion assay", "format": "cell-based, human", "text": "(§1) A more elaborate version of this fundamental assay, the soft agar colony formation disk diffusion assay was used. This assay defines the relative activity of one particular drug versus a tumoral cell line type. The effect of the test drug against tumoral cells could be measured by its inhibitory capacity against colony formation after the delivery of the compound, in different concentrations on an filter disk(4). A modified technique of this assay was used in order to investigate the antiproliferative activity of candidate compounds. Tumoral cells from solid tumors and ascitic lines were plated separately in a two layer agar matrix. Cell lines to be tested were suspended in an upper layer of 0.4% Noble agar (Difco#00142-01) in RPMI-1066 (Gibco#3201875) at a yield varying between 10^4 to 2×10^5 cells per 60 mm Petri dish. Plating efficiency was determined for each line in order to achieve an optimal number of colonies per dish. Plates were examined before drug administration to confirm a uniform dispersion of single cells. The bottom layer consisted of 0.8% Noble agar, 0.8% Tryptic Soy Broth (difco#0037001)in CMRL-1066/Fischer's. The bottom layers were used within 2 and 9 days of preparation. Plated dishes (bottom layer of agar, upper layer of cells and administered drug were incubated in humidified atmosphere at 37° C., 5% CO2 for 10-20 days depending upon the time necessary to observe adequate colonies (defined as a cell aggregate of more than 50 cells) both control and drug inhibited. Drugs were administered on a paper filter disk (Whatman No. 1) of 6.5 mm diameter placed on the upper layer at 1/3 distance from the edge of the dish. The anti-clonogenic activity of the compounds was measured as the zone of inhibition from the disk edge to the most proximal colonies. This zone of inhibition was checked on an inverted microscope (40×) and was measured with a micrometer mounted in the eyepiece. The ocular micrometer was calibrated with a stage micrometer set for a particular combination of ocular and objective lenses. […] We made a modification of the initial technique by not plating a solid tumor and a leukemia simultaneously in the same Petri dish. Anti-clonogenic tests performed on leukemia cell line have helped in the discovery of the majority of current clinically used cytostatic drugs. Our tests on solid tumor lines (animal or human) may help define active compounds with solid tumor specificity. […] HUMAN TUMORS. […] LS180 (13) and BE1(14) were obtained from the Oncology Dept. of the Montreal General Hospital. […] Cell lines were routinely passaged twice a week by trypsinization and maintained in 25, or 75-sq. cm Falcon Plastic flasks at 37° C., 5% CO2 in humidified atmosphere. Both compounds were dissolved in DMSO (1 mg/100 ul) and brought to final volume (250 ul) with Millipore deionized sterile water. Further dilutions were made with […] volume of 25 ul of freshly prepared solution was placed on the filter disk and allowed to dry."}, "MCF7": {"system": "MCF7", "test": "Soft agar colony formation disk diffusion assay", "format": "cell-based, human", "text": "as §1"}, "tumor": {"system": "tumor", "details": "cited from earlier work"}, "bacteria and fungi": {"system": "bacteria and fungi", "details": "cited from earlier work"}}, "data": [{"smiles": "COC(=O)[C@H]1CC2=C(C(=O)c3cc4ccccc4c(O)c3C2=O)[C@H](O[C@H]2C[C@H](NC(=O)C(F)(F)F)[C@H](O)[C@H](C)O2)O1", "note": "[BCH-706]", "values": [{"measurement": "activity and specificity in words", "setting": "tumor cell lines", "result": "most active"}, {"measurement": "cross resistance with adriamycin, MCF7/ADR vs MCF7", "setting": "MCF7/ADR", "result": "lack of cross resistance with adriamycin"}, {"measurement": "zone of inhibition", "setting": "MCF7/ADR; 10 μg/DISK", "result": "91.5 ± 8.6", "unit": "Zone Units"}, {"measurement": "zone of inhibition", "setting": "MCF7/ADR; 100 μg/DISK", "result": 183.0, "unit": "Zone Units"}, {"measurement": "zone of inhibition", "setting": "MCF7; 10 μg/DISK", "result": "103.7 ± 25.5", "unit": "Zone Units"}, {"measurement": "zone of inhibition", "setting": "MCF7; 100 μg/DISK", "result": "213.5 ± 43.1", "unit": "Zone Units"}]}, {"smiles": "CC1OC2CC(=O)OC2C2=C1C(=O)c1c(O)c3c(c(O)c1C2=O)C1CC(O)C3(O)C(C)O1", "note": "(stereo not shown) [Granaticin]", "values": [{"measurement": "antitumor activity", "setting": "tumor", "result": "antitumor activity"}]}, {"smiles": "CC(=O)N1Cc2c(O)c3c(c(O)c2C(O[C@H]2C[C@H](NC(=O)C(F)(F)F)[C@H](O)[C@H](C)O2)C1)C(=O)c1ccccc1C3=O", "note": "(stereo partly shown) [N-(trifluoroacetyl)-4-demethoxy-9-azadaunorubicin]", "values": [{"measurement": "antitumor activity", "setting": "tumor", "result": "no antitumor activity"}]}, {"smiles": "CC1OC2OC(=O)OC2C2=C1C(=O)c1c(O)cccc1C2=O", "note": "(stereo not shown) [kalafungin]", "values": [{"measurement": "antibacterial and antifungal activity", "setting": "bacteria and fungi", "result": "potent antibacterial as well as antifungal activity"}]}, {"smiles": "C[C@@H]1O[C@@H](CC(=O)O)CC2=C1C(=O)c1c(O)cccc1C2=O", "note": "[nanaomycin A]", "values": [{"measurement": "antibacterial and antifungal activity", "setting": "bacteria and fungi", "result": "potent antibacterial as well as antifungal activity"}]}]}
